Measured values reported in patent publication US9120787B2, “HIV replication inhibitors” (priority 2011, dated 2015).

Columns and labels:
HIV-1Ba-L [1] = test: Inhibition of virus replication in MAGI-CCR5 cells (β-galactosidase reporter); format: cell-based; conditions: HIV-1Ba-L in MAGI-CCR5 cells; for IC50: Human immunodeficiency virus 1, 48 hours, β-galactosidase reporter expression, read-out: IC50
Procedure: (§1) The anti-viral activity of dihydropyrimidines was shown by inhibition of virus replication in MAGI-CCR5 cells. MAGI-CCR5 cells are derived from HeLa-CD4-LTR-β-galactosidase cells. The cells have been engineered to express high levels of CD4 and CCR5 and contain one copy of the HIV-1 LTR promoter driving expression of the β-galactosidase gene upon HIV-1 Tat transactivation. On the day preceding the assay, the cells were plated at 1.0×10^4 cells per well and maintained at 37° C. and 5% CO2 in a humidified incubator. Total cell count and viability was visually assessed using a hemacytometer and trypan blue exclusion.
Compounds were evaluated at six concentrations (triplicate wells/concentration). On the day of assay setup, compound dilutions were prepared at two-times (2×) the final concentrations. Media was decanted and wells were replenished with 50 μl of 2× compounds, followed by the addition of 50 μl of diluted virus. Identical uninfected assays were prepared for parallel cytotoxicity testing.
Evaluation of Dihydropyrimidines vs. HIV-1Ba-L in MAGI-CCR5 Cells

[2] = Cytotoxicity by MTS staining in uninfected MAGI-CCR5 cells; format: cell-based; conditions: human, read-out: TC50
Procedure: as §1, with “exclusion. Compounds were evaluated at six concentrations (triplicate wells/concentration). On the day of assay setup, compound dilutions were prepared at two-times (2×) the final concentrations. Media was decanted and wells were replenished with 50 μl of 2× compounds, followed by the addition of 50 μl of diluted virus. Identical uninfected assays were prepared for parallel cytotoxicity testing.” for “exclusion.”

HIV-1Ba-L [3] = test: HIV-1Ba-L replication in PBMCs (supernatant RT end-point); conditions: for IC50: Human immunodeficiency virus 1, PBMC, 168 h; for TI (TC50/IC50): HIV-1Ba-L in PBMCs
Procedure: Evaluation of Dihydropyrimidines vs. HIV-1Ba-L in Peripheral Blood Mononuclear Cells (PBMCs)
Cultures of pooled phytohemagglutinin stimulated peripheral blood mononuclear cells (PBMC) were seeded into a 96-well plate at plating density of 5×10^4 cells/well. Compounds were serially diluted into media in ½-log increments using a high test of […] and […] of each concentration (nine total concentrations). Cells were infected with HIV strains HIV-1Ba-L and NL4-3 at an MOI=0.1. The PBMCs were cultured for seven days in an humidified incubator maintained at 37° C., 5% CO2 atmosphere. At the assay end-point, the supernatant was collected and analyzed for reverse transcriptase activity. For the RT assay, tritiated thymidine triphosphate (3H-TTP, 80 Ci/mmol) was diluted 1:1 dH2O:Ethanol at 1 mCi/ml. Poly rA:oligo dT template:primer was prepared as a stock solution by combining 150 μl poly rA (20 mg/ml) with 0.5 mL oligo dT (20 units/ml) and 5.35 ml sterile dH2O followed by aliquoting (1.0 ml) and storage at −20° C. The RT reaction buffer contained of 125 ml 1.0 M EGTA, 125 ml dH2O, 125 ml 20% Triton X100, 50 ml 1.0 M Tris (pH 7.4), 50 ml 1.0 M DTT, and 40 ml 1.0 M MgCl2. The final reaction mixture was prepared by combining 1 part 3H-TTP, 4 parts dH2O, 2.5 parts poly rA:oligo dT stock and 2.5 parts reaction buffer. To each well, ten microliters of the reaction mixture and 15 μl of virus containing supernatant were added. The plates were incubated at 37° C. for 60 minutes. Following incubation, the reaction volume was spotted onto DE81 filter-mats, washed 5 times for 5 minutes each in a 5% sodium phosphate buffer or 2×SSC. […] were washed 2 times for 1 minute each in distilled water, 2 times for 1 minute each in 70% ethanol, and then dried. Incorporated radioactivity (counts per minute, CPM) was quantified using standard liquid scintillation techniques.

[4] = Cytotoxicity by MTS staining in PBMCs; format: cell-based; conditions: human, peripheral blood mononuclear cells (PBMC), MTS staining, read-out: TC50
Procedure: Cytotoxicity was assessed by MTS staining. At assay end-point, PBMC were stained with the addition of […] of the soluble tetrazolium-based dye MTS to determine cell viability and quantify compound toxicity. The plates were incubated 4 to 6 hrs at 37° C. Following incubation, the activity was assessed by reading absorbance values at 490/650 nm.

Row | SMILES | IC50 (HIV-1Ba-L [1]) | CC50 at 48 h [2] | IC50 (HIV-1Ba-L [3]) | CC50 at 7 days [4] | TI (TC50/IC50) (HIV-1Ba-L [1]) | TI (TC50/IC50) (HIV-1Ba-L [3])
1 | c1cc(CN2CCCNCCNCCCNCC2)ccc1CN1CCCNCCNCCCNCC1 [AMD 3100, reference compound] | > 10 µM | > 10 µM | > 10 µM | > 10 µM |  | 
2 | CC1=C(c2nc(-c3ccc(C#N)cc3)cs2)C(c2ccc(Cl)nc2)NC(=O)N1 (stereo not shown) [Example 3] | 1 to 5 µM | ≥ 100 µM | < 1 µM | ≥ 100 µM | A (A = TI (TC50/IC50) ≧ 100.0) | A (A = TI (TC50/IC50) ≧100.0)
3 | CC1=C(c2nc(-c3ccc(C#N)cc3)cs2)C(c2ccnc3ccccc23)NC(=O)N1 (stereo not shown) [Example 15] | 1 to 5 µM | ≥ 100 µM | 1 to 5 µM | ≥ 100 µM | B (B < 100.0-50.0) | B (B < 100.0-50.0)
4 | CC1=C(c2nc(-c3ccc(C#N)cc3)cs2)C(c2ccc(=O)[nH]c2)NC(=O)N1 (stereo not shown) [Example 18] | > 100 µM | ≥ 100 µM | > 100 µM | ≥ 100 µM | D (D < 10.0) | D (D < 10.0)
5 | CC1=C(c2nc(-c3ccc(C#N)cc3)cs2)C(c2ccc3cccc(O)c3n2)NC(=O)N1 (stereo not shown) [Example 23] | < 1 µM | 50 to 100 µM | < 1 µM | ≥ 100 µM | A (A = TI (TC50/IC50) ≧ 100.0) | A (A = TI (TC50/IC50) ≧100.0)
6 | COc1ccc(C2NC(=O)NC(C)=C2c2nc(-c3ccc(C#N)cc3)cs2)cn1 (stereo not shown) [Example 25] | < 1 µM | ≥ 100 µM | < 1 µM | ≥ 100 µM | A (A = TI (TC50/IC50) ≧ 100.0) | A (A = TI (TC50/IC50) ≧100.0)
7 | COc1cncc(C2NC(=O)NC(C)=C2c2nc(-c3ccc(C#N)cc3)cs2)c1 (stereo not shown) [Example 26] | 5 to 100 µM | ≥ 100 µM | 1 to 5 µM | ≥ 100 µM | D (D < 10.0) | C (C < 50.0-10.0)
8 | COc1cccc(C2NC(=O)NC(C)=C2c2nc(-c3ccc(C#N)cc3)cs2)n1 (stereo not shown) [Example 28] | 1 to 5 µM | ≥ 100 µM | 1 to 5 µM | ≥ 100 µM | B (B < 100.0-50.0) | B (B < 100.0-50.0)
9 | CC1=C(c2nc(-c3ccc(C#N)cc3)cs2)C(c2cccnc2F)NC(=O)N1 (stereo not shown) [Example 29] | < 1 µM | ≥ 100 µM | < 1 µM | ≥ 100 µM | A (A = TI (TC50/IC50) ≧ 100.0) | A (A = TI (TC50/IC50) ≧100.0)
10 | CC1=C(c2nc(-c3ccc(C#N)cc3)cs2)C(c2ccncc2F)NC(=O)N1 (stereo not shown) [Example 30] | > 100 µM | ≥ 100 µM | > 100 µM | ≥ 100 µM | D (D < 10.0) | D (D < 10.0)
11 | CC1=C(c2nc(-c3ccccc3)cs2)C(c2cccc(O)c2)NC(=O)N1 (stereo not shown) [Example 33] | 5 to 100 µM | ≥ 100 µM | 5 to 100 µM | 50 to 100 µM | D (D < 10.0) | D (D < 10.0)
12 | CC1=C(c2nc(-c3ccc(Br)cc3)cs2)C(c2cccc(O)c2)NC(=O)N1 (stereo not shown) [Example 35] | 1 to 5 µM | 50 to 100 µM | 1 to 5 µM | 50 to 100 µM | C (C < 50.0 to 10.0) | C (C < 50.0-10.0)
13 | CC1=C(c2nc(-c3ccc4ccccc4c3)cs2)C(c2cccc(O)c2)NC(=O)N1 (stereo not shown) [Example 36] | 5 to 100 µM | 50 to 100 µM | 5 to 100 µM | < 50 µM | D (D < 10.0) | D (D < 10.0)
14 | CC1=C(c2nc(-c3cccc(C#N)c3)cs2)C(c2ccc(O)cc2)NC(=O)N1 (stereo not shown) [Example 67] | 5 to 100 µM | 50 to 100 µM |  |  | D (D < 10.0) | 
